US11155567B2, “Sting agonist compounds and methods of use” (Mersana Therapeutics, Inc., priority 2019, dated 2021)

Legend:
[1] = target: T1, Human STING (Homo sapiens, UniProt Q86WV6, G230A/H232R/R293Q/R71H); test: Activation of human STING signaling in permeabilized THP1 cells, IRF3 induction; assay type: cell-based; settings: THP1-Dual cells permeabilized with digitonin buffer 30 minutes on ice, then 24 h in RPMI media
T1 construct: host or cells: THP1-Dual cells, digitonin-permeabilized
Experimental: (§1) To evaluate IRF3 reporter levels, cell culture supernatant (20 μl) from each incubated sample was added to QUANTI-Luc™ assay solution (Invivogen, 50 μl), and the luminescence was measured with a SpectraMax M3 spectrophotometer (Molecular Devices).
4×10^5 THP1-Dual™ cells (NF-κB-SEAP and IRF-Lucia luciferase Reporter Monocytes, Invivogen) were incubated with test Compounds in a 5-fold titration steps from […] in permeabilized buffer (50 mM HEPES pH 7.0, 100 mM KCl, 3 mM MgCl2, 85 mM sucrose, 0.2% BSA, 1 mM ATP, 0.1 mM GTP, 0.1 mM TTP, 1 μg/ml digitonin) for 30 minutes on ice. Cells were then washed and incubated in a fresh RPMI media with 10% FBS at 37° C. with 5% CO2 for 24 h. Cell culture supernatants from each sample were collected and NFkB and IRF3 were evaluated as above. Table 3 provides the results for IRF3 induction (“A” means <1 μM; “B” means ≥1 μM and <50 μM; “C” means ≥50 μM).

[2] = target: T2, Human STING (HAQ allele) (Homo sapiens, UniProt Q86WV6, G230A/H232R/R293Q/R71H); test: IRF3 reporter induction in THP1-Dual Human Monocytes cells (homozygous HAQ STING allele); assay type: cell-based; settings: IRF3 reporter (secreted luciferase), 24 hours incubation
T2 construct: THP1-Dual™ Human Monocytes cells with the homozygous HAQ allele; host or cells: THP1-Dual human monocytes
T2 sequence (Q86WV6 whole entry R71H/G230A/H232R/R293Q): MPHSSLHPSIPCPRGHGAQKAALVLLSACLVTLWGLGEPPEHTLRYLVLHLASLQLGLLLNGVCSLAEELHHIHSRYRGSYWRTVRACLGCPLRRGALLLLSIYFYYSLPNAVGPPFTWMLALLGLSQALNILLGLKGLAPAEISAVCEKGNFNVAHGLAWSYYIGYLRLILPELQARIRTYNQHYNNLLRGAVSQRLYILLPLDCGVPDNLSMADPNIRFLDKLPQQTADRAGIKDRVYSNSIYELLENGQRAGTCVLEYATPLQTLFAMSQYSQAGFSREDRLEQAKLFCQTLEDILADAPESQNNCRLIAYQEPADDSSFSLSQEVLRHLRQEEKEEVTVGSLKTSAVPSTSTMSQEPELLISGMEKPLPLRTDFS
Experimental: THP1-Dual™ Human Monocytes cells with the homozygous HAQ allele, known to be a natural variant allele of STING occurring in 20% of the human population (Invivogen) have been engineered with two independent gene reporter systems: a secreted embryonic alkaline phosphatase (SEAP) reporter gene for NFkB activity, and secreted luciferase reporter for […] (IRF3) activity were used. 4×10^5 THP1-Dual™ cells were incubated with test Compounds in a 5-fold titration steps from 1 to 0.0128 μM in RPMI media with 10% FBS, for 24 hours at 37° C. with 5% CO2. Cell culture supernatants (20 μl) from each incubated sample was added to resuspended QUANTI-Blue™ Solution (Invivogen, 180 μl) in each well of a flat-bottom 96-well plate, then incubated for 2 h. NFkB levels were evaluated using a spectrophotometer at 620-655 nm.
as §1
The EC50 value was determined from the dose response curve based on reference Compounds. Table 2a provides the results for IRF3 reporter induction THP1-Dual™ Human Monocytes cells and Table 2b provides the results for IRF3 reporter induction in THP1-Dual™ KI-hSTING-H232 Cells and THP1-Dual™ KI-hSTING-R232 Cells (“A” means <30 nM; “B” means ≥30 nM and <100 nM; “C” means ≥100 nM).

T1 sequence (Q86WV6 whole entry R71H/G230A/H232R/R293Q): as above

EC50 [1] [nM] | EC50 [2] [nM] | SMILES
≥ 50000 |  | COc1cc(C(N)=O)cc2nc(NC(=O)c3cnc(C)n3C)n(C/C=C/Cn3c(NC(=O)c4cnc(C)n4C)nc4cc(C(N)=O)cc(OCCCO)c43)c12 [compound 16]
≥ 50000 |  | COc1cc(C(N)=O)cc2nc(NC(=O)c3cnc(C(F)(F)F)s3)n(C/C=C/Cn3c(NC(=O)c4cnc(C(F)(F)F)s4)nc4cc(C(N)=O)cc(OCCCO)c43)c12 [compound 17]
< 1000 | 30 to 100 | CCc1nc(C)oc1C(=O)Nc1nc2cc(C(N)=O)cc(OC)c2n1C/C=C/Cn1c(NC(=O)c2oc(C)nc2CC)nc2cc(C(N)=O)cc(OCCCN)c21 [compound 18]
< 1000 |  | CCc1nc(C)oc1C(=O)Nc1nc2cc(C(N)=O)cc(OC)c2n1C/C=C/Cn1c(NC(=O)c2oc(C)nc2CC)nc2cc(C(N)=O)cc(OCCCC(=O)O)c21 [compound 19]
< 1000 |  | Cc1cc(C(=O)Nc2nc3cc(C(N)=O)ccc3n2C/C=C/Cn2c(NC(=O)c3cc(C)on3)nc3cc(C(N)=O)cc(OCCCO)c32)no1 [compound 26]
≥ 50000 |  | Cn1nncc1C(=O)Nc1nc2cc(C(N)=O)ccc2n1C/C=C/Cn1c(NC(=O)c2cnnn2C)nc2cc(C(N)=O)cc(OCCCO)c21 [compound 27]
≥ 50000 |  | NC(=O)c1ccc2c(c1)nc(NC(=O)c1cocn1)n2C/C=C/Cn1c(NC(=O)c2cocn2)nc2cc(C(N)=O)cc(OCCCO)c21 [compound 28]
< 1000 |  | CCc1nc(C)oc1C(=O)Nc1nc2cc(C(N)=O)cc(OCCCO)c2n1C/C=C/Cn1c(NC(=O)c2cc(C)nn2CC)nc2cc(C(N)=O)cc(OC)c21 [compound 36]
< 1000 |  | CCc1nc(C)oc1C(=O)Nc1nc2cc(C(N)=O)cc(OCCCO)c2n1C/C=C/Cn1c(NC(=O)c2sc(C)nc2CC)nc2cc(C(N)=O)cc(OC)c21 [compound 37]
< 1000 |  | CCc1nc(C)sc1C(=O)Nc1nc2cc(C(N)=O)cc(OCCCO)c2n1C/C=C/Cn1c(NC(=O)c2cc(C)nn2CC)nc2cc(C(N)=O)cc(OC)c21 [compound 38]
< 1000 |  | CCc1nn(C)cc1C(=O)Nc1nc2cc(C(N)=O)cc(OCCCO)c2n1C/C=C/Cn1c(NC(=O)c2cc(C)nn2CC)nc2cc(C(N)=O)cc(OC)c21 [compound 39]
< 1000 |  | CCc1nc(C)oc1C(=O)Nc1nc2cc(C(N)=O)cc(OC)c2n1C/C=C/Cn1c(NC(=O)c2sc(C)nc2CC)nc2cc(C(N)=O)cc(OCCCO)c21 [compound 40]
≥ 50000 |  | CCc1nc(C)n(C)c1C(=O)Nc1nc2cc(C(N)=O)cc(OCCCO)c2n1C/C=C/Cn1c(NC(=O)c2cc(C)nn2CC)nc2cc(C(N)=O)cc(OC)c21 [compound 41]
< 1000 | < 30 | CCc1nc(C)oc1C(=O)Nc1nc2cc(C(N)=O)cc(OC)c2n1C/C=C/Cn1c(NC(=O)c2cc(C)nn2CC)nc2cc(C(N)=O)cc(OCCCO)c21 [compound 43]
< 1000 |  | CCc1nc(C)oc1C(=O)Nc1nc2cc(C(N)=O)cc(OCCCO)c2n1C/C=C/Cn1c(NC(=O)c2cc(C)nn2CC)nc2cc(C(N)=O)ccc21 [compound 51]
< 1000 |  | CCc1nc(C)sc1C(=O)Nc1nc2cc(C(N)=O)cc(OCCCO)c2n1C/C=C/Cn1c(NC(=O)c2cc(C)nn2CC)nc2cc(C(N)=O)ccc21 [compound 52]

EC50 [1] [nM] | EC50 [2] [nM] | SMILES
< 1000 | ≥ 100 | CCc1nn(C)cc1C(=O)Nc1nc2cc(C(N)=O)cc(OCCCO)c2n1C/C=C/Cn1c(NC(=O)c2cc(C)nn2CC)nc2cc(C(N)=O)ccc21 [compound 53]
≥ 50000 |  | CCc1ncoc1C(=O)/N=c1\sc2cc(C(N)=O)cc(OC)c2n1C/C=C/Cn1c(NC(=O)c2ocnc2CC)nc2cc(C(N)=O)cc(OCCCO)c21 [compound 64]
< 1000 | < 30 | CCn1nc(C)cc1C(=O)/N=c1\sc2cc(C(N)=O)cc(OC)c2n1C/C=C/Cn1c(NC(=O)c2cc(C)nn2CC)nc2cc(C(N)=O)cc(OCCCO)c21 [compound 65]
< 1000 |  | CCn1nc(C)cc1C(=O)/N=c1\sc2cc(C(N)=O)cc(OC)c2n1C/C=C/Cn1c(NC(=O)c2cc(C)nn2CC)nc2cc(C(N)=O)cc(OCCCN)c21 [compound 67]
≥ 50000 |  | CCc1nc(C)oc1C(=O)/N=c1\sc2cc(C(N)=O)cc(OC)c2n1C/C=C/Cn1c(NC(=O)c2sc(C)nc2CC)nc2cc(C(N)=O)cc(OCCCO)c21 [compound 70]
1000 to 50000 |  | CCn1nc(C)cc1C(=O)/N=c1\sc2cc(C(N)=O)cc(OC)c2n1C/C=C/Cn1c(NC(=O)c2ncnn2C(C)C)nc2cc(C(N)=O)cc(OCCCO)c21 [compound 71]
≥ 50000 |  | CCn1nc(C)cc1C(=O)/N=c1\sc2cc(C(N)=O)cc(OC)c2n1C/C=C/Cn1c(NC(=O)C2=C(C)OCC2)nc2cc(C(N)=O)cc(OCCCO)c21 [compound 75]
< 1000 |  | CCc1nc(C)oc1C(=O)Nc1nc2cc(C(N)=O)cc(OCCCO)c2n1C/C=C/Cn1/c(=N/C(=O)c2sc(C)nc2CC)sc2cc(C(N)=O)cc(OC)c21 [compound 76]
< 1000 |  | CCn1nc(C)cc1C(=O)Nc1nc2cc(C(N)=O)cnc2n1C/C=C/Cn1c(NC(=O)c2cc(C)nn2CC)nc2cc(C(N)=O)cnc21 [compound 84]
1000 to 50000 |  | CCc1nc(C)oc1C(=O)Nc1nc2cc(C(N)=O)cnc2n1C/C=C/Cn1c(NC(=O)c2oc(C)nc2CC)nc2cc(C(N)=O)cnc21 [compound 85]
< 1000 |  | CCn1nc(C)cc1C(=O)Nc1nc2cc(C(N)=O)cnc2n1C/C=C/Cn1c(NC(=O)c2cc(C)nn2CC)nc2cc(C(N)=O)cc(Br)c21 [compound 89]
< 1000 |  | CCc1nc(C)oc1C(=O)Nc1nc2cc(C(N)=O)cnc2n1C/C=C/Cn1c(NC(=O)c2oc(C)nc2CC)nc2cc(C(N)=O)cc(Br)c21 [compound 90]
< 1000 |  | CCn1nc(C)cc1C(=O)Nc1nc2cc(C(N)=O)cnc2n1C/C=C/Cn1c(NC(=O)c2cc(C)nn2CC)nc2cc(C(N)=O)cc(OCCCO)c21 [compound 94]
< 1000 |  | CCc1nc(C)oc1C(=O)Nc1nc2cc(C(N)=O)cnc2n1C/C=C/Cn1c(NC(=O)c2oc(C)nc2CC)nc2cc(C(N)=O)cc(OCCCN)c21 [compound 96]
< 1000 | ≥ 100 | CCc1nc(C)oc1C(=O)Nc1nc2cc(C(N)=O)cnc2n1C/C=C/Cn1c(NC(=O)c2oc(C)nc2CC)nc2cc(C(N)=O)cc(OCCCC(=O)O)c21 [compound 97]
< 1000 |  | CCn1nc(C)cc1C(=O)/N=c1\sc2cc(C(N)=O)cnc2n1C/C=C/Cn1c(NC(=O)c2cc(C)nn2CC)nc2cc(C(N)=O)cc(OCCCO)c21 [compound 110]
